Values of other authors as cited in US7700588B2, “Pharmaceutical compositions comprising midazolam in a high concentration” (priority 2004, dated 2010).
Like-named read-outs stand apart in the source and are kept apart here.

Legend:
[1] = not given; remark: listed apart in the source
[2] = for mean absolute bioavailability: injection solutions
[3] = free base, pH 7.5
[4] = nasal 0.2 mg/kg
[5] = tested on: intestinal drug efflux transporter; conditions: orally delivered
[6] = commercial intravenous solutions 5 mg/ml, pH 3.3 to 3.5
[7] = after nasal administration, 0.2 to 0.25 mg/kg

For `Cc1ncc2n1-c1ccc(Cl)cc1C(c1ccccc1F)=NC2` [midazolam], the onset of action (intranasal, children and adults) is listed as “about 10 minutes”, the “clinical effect in children undergoing diagnostic and minor surgical procedures” value (nasal 0.2 mg/kg) is listed as “sedative and anxiolytic effects” and the “effect on seizures and EEG in epileptic children” value (nasal 0.2 mg/kg) is listed as “suppresses acute seizures and improves the EEG background”. For the same compound, the “share in the ring-closed form” value [1, 6] was 80-85%, the “share in the ring-open form” value [1, 6] was 15-20% and the “state of the ring when pH is increased” value ([1]; pH increased to 7.4) was “completely closed”. For the same compound, the “time for which therapeutically effective plasma concentrations are maintained” value [2, 7] was “about 1 hour”, the “time until therapeutically effective plasma concentrations are manifest” value [2, 7] was 3 min and the “time to maximum plasma concentrations” value ([2]; intranasal) was 5 to 15 min. The mean absolute bioavailability ([2]; intranasal, adult surgical patients) was 83%, the mean absolute bioavailability ([2]; intranasal, children) was 50% and the mean absolute bioavailability ([2]; intranasal, healthy volunteers) was 55%. The “partition coefficient between octanol and phosphate buffer” value [3] was “about 475”, the “side effects in children” value [4] was “none of the children had clinical signs of respiratory depression, bradycardia or other side effects” and the transporter substrate [5] was “substrate for the intestinal drug efflux transporter”.
